# According to publication PMC2790855, “BU-32: a novel proteasome inhibitor for breast cancer” (2009):
# Molecular target: T1, 20S proteasome caspase-like activity (β1-subunit) (Homo sapiens, UniProt P28072)
# T1 construct: gene PSMB6; with 20S proteasome
# T1 sequence (P28072 35-239): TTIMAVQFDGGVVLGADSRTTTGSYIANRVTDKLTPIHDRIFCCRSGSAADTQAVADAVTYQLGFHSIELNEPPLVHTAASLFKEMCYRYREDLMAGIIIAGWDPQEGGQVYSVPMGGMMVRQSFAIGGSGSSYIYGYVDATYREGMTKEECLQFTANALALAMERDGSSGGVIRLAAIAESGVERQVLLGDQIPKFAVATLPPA
# Assay: Proteasome-Glo caspase-like assay in MDA-MB-231, MCF7 and SKBR3 cells treated […] h with […]; reference inhibitor
# Format: cell-based
smiles,measurement,value
CC(C)C[C@H](NC(=O)[C@H](Cc1ccccc1)NC(=O)c1cnccn1)B(O)O [Bortezomib],"Proteasome-Glo caspase-like assay in MDA-MB-231, MCF7 and SKBR3 cells treated 24","analyzed for the inhibition of chymotryptic-like, caspase-like, and tryptic-like intracellular proteasome activities"
